# Assay results: patent US9669016B2, “Antiparasitic effect of Bis[3,5-Bis(Benzylidene)-4-Oxo-1-Piperidinyl]amide Derivatives” (priority 2014, dated 2017)
# Like-named read-outs stand apart in the source and are kept apart here.
# Tests used:
# [1] = system: BALB/c intraperitoneal macrophages; assay: Viability assay (Alamar Blue) on peritoneal murine macrophages; format: cell-based; conditions: Mus musculus, Macrophage; read-out: Mammalian cells IC50 ± SD, Peritoneal Murine Macrophages
# Experimental: (§1) Viability assay on mammalian cells and T. cruzi epimastigotes. The cytotoxicity and anti-trypanosomal activity of the NC compounds was tested in human Hs27 fibroblasts (ATCC CRL-1634), LLC-MK2 cells (ATCC CCL-7), RAW 264.7 murine macrophages (ATCC TIB71) (American Type Culture Collection-ATCC, Manassa, Va.), mice intraperitoneal macrophages and in epimastigote forms of T. cruzi Y strain using Alamar Blue assay (Invitrogen—Life Technology, Grand Island, N.Y.). The experiments were performed as described using a range of concentration of 500 μM to 1 nM.
# Hs27 human fibroblasts = assay: Viability assay (Alamar Blue) on Hs27 fibroblasts; format: cell-based; conditions: read-out: Mammalian cells IC50 ± SD, Hs27 Fibroblasts
# Experimental: Rhesus monkey kidney epithelial cell LLC-MK2 (American Type Culture Collection-ATCC, Manassas, Va. # CCL-7), Hs-27 human fibroblasts (American Type Culture Collection-ATCC, Manassas, Va.), RAW 264.7 murine macrophages (American Type Culture Collection-ATCC, Manassas, Va.) U2-09 human osteoblasts (American Type Culture Collection-ATCC, Manassas, Va. # HTB-99) (American Type Culture Collection-ATCC, Manassas, Va.) cells were cultured in Dulbecco's Modified Eagle's Medium (DMEM), supplemented with 10% inactivated FBS, along with 1% of 10,000 units/ml penicillin and 10 mg/ml streptomycin in 0.9% sodium chloride. Intraperitoneal BALB/c mice macrophages were obtained and cultured in DMEM high-glucose, +L-glu, supplemented with 10% FBS (inactivated). The procedure was performed minimizing the distress and pain for the animals following the NIH guidance and animal protocol approved by UTEP's Institutional Animal Care and Use Committee (IACUC).
# as §1
# The statistical significance (p-value) of the compound's cytotoxicity was calculated using the General Linear Mixed Model Analysis. This analysis was used to test the linear effect of the logarithm of dose on the logit transformation of the percent survival. The IC50 was obtained as the exponent of the negative ratio of the y-intercept and the slope of the fitted regression line (SAS Software, Version 9.2). […] All experiments had statistical significance determined at p≦0.05(*), p≦0.01(**), and p≦0.001(***).
# [2] = system: Leishmania major promastigotes; assay: Luciferase survival assay on L. major promastigotes; format: cell-based
# Experimental: Evaluation of the NC library activity against Leishmania major. The NC library (136 compounds) was screened using firefly luciferase-expressing L. major promastigotes referred to as Lmj-FV1-LUC-TK (L. major strain Friedlin (MHOM/JL/80/Friedlin) clone V1) engineered to express luciferase following integration of the construct pIR1SAT-LUC(a)-TK(b) (strain B5113) in the rRNA locus (S. M. Hickerson and S. M. Beverley, unpublished data). Enones (stock solutions in DMSO) were diluted (1 nM to 500 μM, in a final 1% DMSO) and added (1 μl per well) to 96-well microplates using an Eppendorf epMotion 5070 automated pipetting system. Promastigotes (10^6/well) were added, and parasite survival was assessed by luciferase activity with the substrate 5′-fluoroluciferin (ONE-Glo Luciferase Assay System, Promega) after 96-h incubation at 28° C., using a luminometer (Luminoskan, Thermo). The bioluminescent intensity was a direct measure of the survival of parasites. This was determined by comparing bioluminescent intensity of L. major parasites live/dead with MTT assay and cell counting. The primary compound screens were performed as single wells.
# [3] = system: L. major metacyclic promastigotes; assay: Murine model for cutaneous leishmaniasis (footpad infection); format: in vivo, BALB/c mice; conditions: for footpad swelling: 10^5 L. major metacyclic promastigotes, intraperitoneal daily treatment
# Experimental: The in vivo experiments were comprised of four groups of five mice each: (1) infected, but not treated [control for the infection—100 μL of DMSO per day, drug diluent]; (2) treated with NC884, NC901 or NC2459, but not infected with the parasites [control for drug toxicity]; (3) infected with the parasites and treated with amphotericin B (8 mg/kg/day) [reference drug; positive control]; and (4) infected with the parasites and treated with NC884, NC901 or NC2459 [experimental group]. Luciferase expressing metacyclic promastigotes L. major (Freidlin V1) were obtained as described previously. Suspensions of 1×10^5 or 1×10^6 parasites per 50 μl of sterile DMEM (endotoxin-free) were injected with a 30G needle into the left hind footpad of BALB/c mice. Two weeks post-infection the compounds were administered once a day by intraperitoneal route, daily for 14 to 17 days. Twice a week, weights were recorded to monitor toxicity and the thickness of the infected footpad and the non-infected footpad was measured with digital calipers to monitor the progression of the disease. The parasitic load also was evaluated through in vivo imaging using luminescence (Kodak Image Station). The mice were injected intra-peritoneally with 150 mg/kg D-luciferin (Sigma, USA) 10 min before imaging, anesthetized with 1-2% isofluorane in oxygen during imaging and the net intensity emitted from the footpad was quantified using the KODAK Image Station software. Parasite burden was expressed as net intensity emitted from L. major infected footpad lesions normalized against the background fluorescence of uninfected mice. The presence/absence of parasites was confirmed by PCR using L. major methionine aminopeptidase (MetAP1) 1 specific primers: 5′-[…]-3′ (SEQ ID NO:1) and 5′-[…]-3′ (SEQ ID NO:2) on cDNA reverse transcribed from total RNA extracted from footpad lysate obtained by macerating footpad tissue fragments in Trizol (Invitrogen Life Technologies, United States) with the gentleMACS™ Dissociator (Miltenyi Biotec GmbH, Germany) following the manufacturer's protocol.
# [4] = 96 h, read-out: estimated EC50, L. major promastigotes
# [5] = 96 h incubation, read-out: L. major Promastigotes EC50
SMILES,IC50 [1],IC50 (Hs27 human fibroblasts),"EC50 [2, 4]","EC50 [2, 5]",footpad swelling [3],"EC50 ([2]; after a 96 hour treatment, read-out: estimated EC50, L. major promastigotes)",time until measurable lesions start developing ([3]; 10^5 parasites),"mice never developing a lesion ([3]; 10^5 parasites, monitored up to twelve weeks post-infection)","lesion size at 33 days post-infection ([3]; 10^6 parasites, 8 mg/kg/day extended treatment, p≦0.05)",PCR of L. major MetAP1 gene in footpad ([3]; mouse displaying no lesion)
CN(C)CC1CCC(CN(C)C)C1=O (stereo not shown) [NC884],7.67 ± 0.31 µM,16.3 ± 0.17 µM,1.12 µM,1.12 µM,reduced the footpad swelling similar to that of the positive control,–,–,–,–,–
CN(C)CC1CCCC(CN(C)C)C1=O (stereo not shown) [NC901],7.03 ± 0.42 µM,16 ± 0.12 µM,0.453 µM,0.45 µM,reduced the footpad swelling similar to that of the positive control,–,–,–,–,–
O=C1/C(=C/c2ccccc2)CN(C(=O)C(=O)N2C/C(=C\c3ccccc3)C(=O)/C(=C/c3ccccc3)C2)C/C1=C\c1ccccc1 [NC2459],5.45 ± 0.36 µM,10.01 ± 0.09 µM,–,0.02 µM,much lower amount of swelling than all groups,0.02 µM,6-7 weeks post-infection,one out of the three mice never developed a lesion,significantly smaller lesion than all other groups,no traces of L. major genomic DNA
